US20140350034A1, “Aminopyridine derivatives as plasma kallikrein inhibitors” (NOVARTIS AG, priority 2012, published 2014)
pIC50: −log10 of the molar value.

The compounds below were run against T1, Human plasma kallikrein (Homo sapiens, UniProt P03952) (assay: In vitro inhibition of plasma kallikrein (fluorogenic substrate DPro-Phe-Arg-(Rh110)-γGlu-OH)). Details: human plasma kallikrein 12 pM, substrate 0.5 μM, 1 hour pre-incubation at room temperature, read after 1 hour.
T1 construct: purchased Kordia (Leiden, Netherlands) batch HPKA 1303
T1 sequence (P03952 391-638 limits assumed): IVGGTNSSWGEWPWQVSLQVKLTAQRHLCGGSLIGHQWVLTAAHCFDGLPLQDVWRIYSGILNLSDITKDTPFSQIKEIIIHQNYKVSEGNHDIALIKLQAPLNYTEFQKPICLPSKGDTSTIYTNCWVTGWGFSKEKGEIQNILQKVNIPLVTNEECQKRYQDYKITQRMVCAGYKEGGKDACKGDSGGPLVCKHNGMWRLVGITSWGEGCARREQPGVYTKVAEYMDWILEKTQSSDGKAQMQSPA
T1 sequence (P03952 20-390 partner limits assumed): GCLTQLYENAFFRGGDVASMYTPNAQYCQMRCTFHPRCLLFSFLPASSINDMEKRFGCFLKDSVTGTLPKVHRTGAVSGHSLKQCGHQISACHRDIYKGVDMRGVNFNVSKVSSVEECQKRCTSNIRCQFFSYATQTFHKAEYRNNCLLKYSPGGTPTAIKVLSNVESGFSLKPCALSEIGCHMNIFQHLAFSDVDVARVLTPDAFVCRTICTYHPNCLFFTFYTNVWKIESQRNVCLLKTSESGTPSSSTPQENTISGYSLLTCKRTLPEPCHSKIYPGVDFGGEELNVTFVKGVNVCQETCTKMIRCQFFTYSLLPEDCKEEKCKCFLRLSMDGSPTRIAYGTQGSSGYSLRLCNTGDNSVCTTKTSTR
Format: biochemical
Protocol: In Vitro Inhibition of Plasma Kallikrein
The fluorogenic substrate DPro-Phe-Arg-(Rh110)-γGlu-OH (where DPro is the amino acid d-proline, Rh110 is the fluorophore rhodamine 110 and γGlu is a […] linked to Rh110 via the gamma-carbonyl function; from Biosyntan, Berlin, Germany), being based on the chromogenic substrate described in Gallimore et al (Thromb Res 25, 293-298, 1982), was dissolved in DMSO at 5 mM and stored at −80° C. All other chemicals were of analytical grade.
Human plasma kallikrein was purchased from Kordia (Leiden, Netherlands, batch HPKA 1303) in lyophilized form.
The protein solution was reconstituted from the lyophilisate by addition of deinonized water. The resulting stock solution comprised the protein at a concentration of 0.17 mg/ml in 4 mM sodium acetate/HCl and 150 mM NaCl at pH 5.3. The stock solution was stored in aliquots at −80° C.
Enzymatic reactions were conducted in ‘assay buffer’, comprising 50 mM Hepes/NaOH at pH 7.8, 150 mM NaCl, 1 mM EDTA and 0.05% (w/v) CHAPS.
Both, enzyme and substrate were diluted in assay buffer.
All protein and peptide containing solutions were handled in siliconized tubes (Life Systems Design, Merenschwand, Switzerland). The compound solutions as well as the enzyme and the substrate solutions were transferred to 384-well plates (black Cliniplate; cat. no. 95040020 Labsystems Oy, Finland) by means of a CyBi-Well 96-channel pipettor (CyBio AG, Jena, Germany). Plate measurements were conducted by the means of a Safire2 reader (TECAN, Maennedorf, Switzerland). The Safire2 is a monochomator-based instrument and wavelengths of 485 nm and 535 nm were taken for fluorescence excitation and emission acquisition, respectively. The bandwidths were set to 10 nm in both the excitation and the emission path. The fluorescence in each well was excited by three flashes per measurement.
Determination of IC50 Values
For the determination of IC50 values, the assays were performed at room temperature in 384-well plates with a total assay volume of 25.25 μl per well.
The test compound was dissolved in 90% (v/v) DMSO/water. For the assays, 250 nL of the 90% (v/v) DMSO/water solution or compound solution were added per well, followed by the addition of 12.5 μl protease solution (protease in assay buffer). The final assay concentration of the human plasma kallikrein was nominally 12 pM, the 11 compound concentrations in the dilution series were in the range form 1 nM to 100 μM. After 1 hour of pre-incubation at room temperature, the reactions were started by the addition of 12.5 μl substrate solution (in assay buffer, final assay concentration was 0.5 μM). After the addition of the substrate solution, the final DMSO concentration in the assay was 0.9% (v/v). The effect of the compound on the enzymatic activity was obtained from the linear part of the progress curves and determined after 1 hour (t=60 min). The IC50 value was calculated from the plot of percentage of inhibition vs. inhibitor concentration by a logistics fit according to the following equation:
where y is the %-inhibition at the inhibitor concentration, x. A1 is the lowest inhibition value, i.e. 0%, and A2 the maximum inhibition value, i.e. 100%. The exponent, p, is the Hill coefficient. The curve fitting was conducted with the non-linear regression routine of the analysis software Origin 7.5SR6 (Origin Lab Corporation).
In the case of CCc1cc2c(NCc3c(C)cc(N)nc3C)ncnc2s1 [Example 1, N-((6-amino-2,4-dimethylpyridin-3-yl)methyl)-6-ethylthieno[2,3-d]pyrimidin-4-amine], the pIC50 was 4.57.
Cc1cc(N)nc(C)c1CNC(=O)c1cc2ccccc2o1 [Example 2, N-((6-amino-2,4-dimethylpyridin-3-yl)methyl)benzofuran-2-carboxamide] gave a pIC50 of 5.33.
In the case of Cc1cc(N)nc(C)c1CNC(=O)c1cc2ccccc2s1 [Example 3, N-((6-amino-2,4-dimethylpyridin-3-yl)methyl)benzo[b]thiophene-2-carboxamide], the pIC50 was 5.27.
Cc1cc(N)nc(C)c1CNc1ncnc2oc(Cc3c(Cl)cccc3Cl)nc12 [Example 4, N-((6-amino-2,4-dimethylpyridin-3-yl)methyl)-2-(2,6-dichlorobenzyl) oxazolo[5,4-d]pyrimidin-7-amine] was tested, and the pIC50 was 5.75.
For Cc1cc(N)nc(C)c1CNC(=O)c1cc2ccccc2[nH]1 [Example 5, N-((6-amino-2,4-dimethylpyridin-3-yl)methyl)-1H-indole-2-carboxamide], the pIC50 was 5.42.
Cc1cc(N)nc(C)c1CNC(=O)c1ccc2ccccc2c1 [Example 6, N-((6-amino-2,4-dimethylpyridin-3-yl)methyl)-2-naphthamide] was tested, and the pIC50 was 5.64.
With Cc1cc(N)nc(C)c1CNc1ncc2ccn(Cc3ccc4ccccc4c3)c2n1 [Example 7, N-((6-amino-2,4-dimethylpyridin-3-yl)methyl)-7-(naphthalen-2-ylmethyl)-7H-pyrrolo[2,3-d]pyrimidin-2-amine] the pIC50 was 5.79.

Same assay, conditions: the above-described assay (human plasma kallikrein)
Compound COc1cc2ncnc(NCc3c(C)cc(N)nc3C)c2cc1OC [N-((6-amino-2,4-dimethyl-pyridin-3-yl)-methyl)-8,9-dimethoxy-2,4-diaza-bicyclo[4.4.0]deca-1(6),2,4,7,9-pentaen-5-amine] has a pIC50 of less than 4.52.
Cc1cc(N)nc(C)c1CNc1ncnc2c1ccn2C [N-((6-amino-2,4-dimethyl-pyridin-3-yl)-methyl)-9-methyl-2,4,9-triaza-bicyclo[4.3.0]nona-1(6),2,4,7-tetraen-5-amine] showed a pIC50 of less than 4.52.
